Reference: ChEMBL document CHEMBL1135809 (J Med Chem, 2002)
pIC50: −log10 of the molar value.

Assays:
[1] = biological target: Sigma non-opioid intracellular receptor 1 (Homo sapiens) (UniProt Q99720); assay: Selectivity ratio (Sigma1/Sigma2)
Substance-K receptor = biological target: T1, Substance-K receptor (Homo sapiens, UniProt P21452); assay: Inhibition of [125I]NKA binding to human Tachykinin receptor 2 (NK2)
T1 sequence (P21452 whole entry): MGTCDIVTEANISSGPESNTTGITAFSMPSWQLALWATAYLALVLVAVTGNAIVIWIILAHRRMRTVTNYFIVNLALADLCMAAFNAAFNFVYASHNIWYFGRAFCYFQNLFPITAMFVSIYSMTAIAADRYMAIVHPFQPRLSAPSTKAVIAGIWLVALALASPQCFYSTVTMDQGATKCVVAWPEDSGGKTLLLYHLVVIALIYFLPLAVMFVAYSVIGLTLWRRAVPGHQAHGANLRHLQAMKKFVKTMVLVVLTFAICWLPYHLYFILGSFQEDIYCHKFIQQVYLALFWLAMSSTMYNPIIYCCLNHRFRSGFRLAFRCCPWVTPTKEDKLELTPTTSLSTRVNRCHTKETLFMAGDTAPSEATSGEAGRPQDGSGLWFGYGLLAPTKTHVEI

[2] = biological target: Glutamate receptor ionotropic, NMDA 2C (Rattus norvegicus, UniProt Q00961); assay: Inhibition of MK 801 binding to NMDA, PCP receptor
Glutamate receptor ionotropic, NMDA 2C, sequence (Q00961 whole entry): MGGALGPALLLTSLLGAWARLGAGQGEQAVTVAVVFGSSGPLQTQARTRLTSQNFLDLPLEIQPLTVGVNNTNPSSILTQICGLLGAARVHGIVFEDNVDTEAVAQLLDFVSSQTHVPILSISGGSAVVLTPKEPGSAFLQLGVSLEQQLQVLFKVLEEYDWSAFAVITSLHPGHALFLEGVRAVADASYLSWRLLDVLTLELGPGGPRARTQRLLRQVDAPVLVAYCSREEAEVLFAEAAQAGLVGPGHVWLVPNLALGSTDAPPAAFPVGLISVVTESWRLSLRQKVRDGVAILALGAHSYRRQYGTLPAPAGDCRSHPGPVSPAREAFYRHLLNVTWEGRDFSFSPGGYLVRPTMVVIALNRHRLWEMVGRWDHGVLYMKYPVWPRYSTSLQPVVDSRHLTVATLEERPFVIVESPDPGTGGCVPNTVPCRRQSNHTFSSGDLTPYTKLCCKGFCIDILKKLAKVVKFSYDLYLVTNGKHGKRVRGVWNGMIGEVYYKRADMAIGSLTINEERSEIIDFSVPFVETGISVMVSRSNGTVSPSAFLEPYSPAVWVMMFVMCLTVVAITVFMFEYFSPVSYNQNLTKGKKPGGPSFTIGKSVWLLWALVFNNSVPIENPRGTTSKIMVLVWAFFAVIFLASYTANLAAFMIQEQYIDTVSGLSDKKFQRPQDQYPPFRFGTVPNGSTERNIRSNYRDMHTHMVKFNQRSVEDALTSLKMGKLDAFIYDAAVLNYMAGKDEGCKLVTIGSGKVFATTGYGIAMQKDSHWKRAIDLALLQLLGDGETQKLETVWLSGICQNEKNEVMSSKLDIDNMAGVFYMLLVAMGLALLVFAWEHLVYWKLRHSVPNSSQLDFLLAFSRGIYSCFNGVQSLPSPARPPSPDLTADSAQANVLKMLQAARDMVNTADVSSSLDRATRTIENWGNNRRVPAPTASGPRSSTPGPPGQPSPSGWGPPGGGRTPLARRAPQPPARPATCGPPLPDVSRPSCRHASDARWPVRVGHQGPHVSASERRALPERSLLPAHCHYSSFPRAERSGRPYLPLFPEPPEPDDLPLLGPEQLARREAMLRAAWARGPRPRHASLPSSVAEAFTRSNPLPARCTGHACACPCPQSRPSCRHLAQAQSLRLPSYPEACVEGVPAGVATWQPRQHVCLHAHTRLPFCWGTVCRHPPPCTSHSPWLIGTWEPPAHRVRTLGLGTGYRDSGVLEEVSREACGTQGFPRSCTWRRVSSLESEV

D(1A) dopamine receptor = D(1A) dopamine receptor (Mus musculus, UniProt Q61616); assay: Inhibition of SCH 23390 binding to Dopamine receptor D1
D(1A) dopamine receptor, sequence (Q61616 whole entry): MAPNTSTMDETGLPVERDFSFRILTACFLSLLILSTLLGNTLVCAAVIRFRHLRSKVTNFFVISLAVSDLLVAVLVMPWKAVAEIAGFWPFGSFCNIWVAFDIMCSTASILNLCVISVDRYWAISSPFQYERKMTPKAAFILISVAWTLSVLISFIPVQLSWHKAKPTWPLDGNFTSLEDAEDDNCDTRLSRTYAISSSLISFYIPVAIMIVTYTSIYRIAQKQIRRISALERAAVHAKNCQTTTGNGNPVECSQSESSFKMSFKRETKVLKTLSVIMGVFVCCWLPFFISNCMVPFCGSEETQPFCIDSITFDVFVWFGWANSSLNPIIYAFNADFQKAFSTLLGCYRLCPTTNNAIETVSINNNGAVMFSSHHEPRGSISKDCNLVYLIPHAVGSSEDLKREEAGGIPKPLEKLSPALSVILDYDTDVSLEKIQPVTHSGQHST

[3] = biological target: T2, 5-hydroxytryptamine receptor 1A (Mus musculus, UniProt Q64264); assay: Inhibition of […] binding to 5-hydroxytryptamine 1A receptor
T2 sequence (Q64264 whole entry): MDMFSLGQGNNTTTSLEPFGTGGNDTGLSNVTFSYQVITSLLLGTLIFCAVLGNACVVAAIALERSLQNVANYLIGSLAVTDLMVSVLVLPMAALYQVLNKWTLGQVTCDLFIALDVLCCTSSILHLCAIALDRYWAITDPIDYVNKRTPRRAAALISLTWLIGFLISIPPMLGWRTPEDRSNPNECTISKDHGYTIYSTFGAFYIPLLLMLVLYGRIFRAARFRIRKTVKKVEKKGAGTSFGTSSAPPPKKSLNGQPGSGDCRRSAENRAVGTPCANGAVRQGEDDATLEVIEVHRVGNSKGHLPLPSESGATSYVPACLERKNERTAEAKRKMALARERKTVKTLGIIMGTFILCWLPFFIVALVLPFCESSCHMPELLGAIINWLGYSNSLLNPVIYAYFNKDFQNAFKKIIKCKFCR

[4] = The compound was tested for inhibition of serotonin reuptake; assay type: functional
Histamine H1 receptor = Histamine H1 receptor (Homo sapiens, UniProt P35367); assay: Inhibition of mepyramine binding to Histamine H1 receptor
Histamine H1 receptor, sequence (P35367 whole entry): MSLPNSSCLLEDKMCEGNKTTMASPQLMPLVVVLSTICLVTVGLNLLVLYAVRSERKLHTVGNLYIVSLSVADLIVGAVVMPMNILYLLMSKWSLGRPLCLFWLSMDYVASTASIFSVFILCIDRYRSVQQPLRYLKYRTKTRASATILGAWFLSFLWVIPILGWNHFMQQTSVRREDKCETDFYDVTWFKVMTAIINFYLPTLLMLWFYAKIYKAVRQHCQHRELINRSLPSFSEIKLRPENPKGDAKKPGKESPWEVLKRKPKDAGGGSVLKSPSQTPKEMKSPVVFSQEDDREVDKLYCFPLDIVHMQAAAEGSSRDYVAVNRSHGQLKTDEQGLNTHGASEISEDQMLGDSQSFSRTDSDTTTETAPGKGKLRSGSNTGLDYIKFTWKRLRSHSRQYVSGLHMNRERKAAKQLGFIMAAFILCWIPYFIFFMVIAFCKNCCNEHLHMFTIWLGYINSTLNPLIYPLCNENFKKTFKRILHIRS

[5] = biological target: T3, 5-hydroxytryptamine receptor 3A (Homo sapiens, UniProt P46098); assay: Inhibition of GR-65630 binding to 5-hydroxytryptamine 3 receptor
T3 sequence (P46098 whole entry): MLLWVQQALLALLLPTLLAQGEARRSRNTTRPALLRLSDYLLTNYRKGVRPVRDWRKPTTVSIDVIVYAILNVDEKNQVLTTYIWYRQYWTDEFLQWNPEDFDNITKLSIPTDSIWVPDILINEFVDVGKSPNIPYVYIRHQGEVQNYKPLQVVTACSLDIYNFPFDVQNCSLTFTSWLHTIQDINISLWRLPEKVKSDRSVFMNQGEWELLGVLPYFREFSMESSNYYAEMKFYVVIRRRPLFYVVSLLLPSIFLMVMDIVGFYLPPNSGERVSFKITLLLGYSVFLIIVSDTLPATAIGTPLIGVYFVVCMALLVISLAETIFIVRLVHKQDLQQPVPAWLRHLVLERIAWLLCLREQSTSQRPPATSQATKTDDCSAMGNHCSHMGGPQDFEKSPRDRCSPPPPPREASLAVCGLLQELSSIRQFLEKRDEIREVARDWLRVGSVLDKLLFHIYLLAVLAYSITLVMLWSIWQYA

[6] = biological target: 5-hydroxytryptamine receptor 2A (Homo sapiens, UniProt P28223); assay: Inhibition of ketanserin binding to 5-hydroxytryptamine 2A receptor
5-hydroxytryptamine receptor 2A, sequence (P28223 whole entry): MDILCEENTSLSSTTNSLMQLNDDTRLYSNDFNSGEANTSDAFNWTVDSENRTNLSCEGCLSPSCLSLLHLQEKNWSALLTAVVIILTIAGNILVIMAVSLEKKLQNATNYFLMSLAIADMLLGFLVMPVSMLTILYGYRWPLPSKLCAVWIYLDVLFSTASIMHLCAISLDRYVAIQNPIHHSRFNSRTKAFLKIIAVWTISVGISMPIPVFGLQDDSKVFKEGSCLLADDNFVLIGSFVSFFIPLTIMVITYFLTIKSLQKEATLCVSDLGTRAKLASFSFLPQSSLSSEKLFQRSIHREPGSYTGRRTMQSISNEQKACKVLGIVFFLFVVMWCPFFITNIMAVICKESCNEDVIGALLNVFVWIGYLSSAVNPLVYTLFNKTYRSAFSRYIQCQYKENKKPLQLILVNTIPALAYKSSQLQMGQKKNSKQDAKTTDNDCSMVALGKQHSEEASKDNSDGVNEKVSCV

[7] = The compound was tested for inhibition of noradrenaline reuptake; assay type: functional
[8] = biological target: T4, Alpha-2A adrenergic receptor (Homo sapiens, UniProt P08913); assay: Inhibition of idazoxane binding to noradrenaline alpha-2 receptor
T4 sequence (P08913 whole entry): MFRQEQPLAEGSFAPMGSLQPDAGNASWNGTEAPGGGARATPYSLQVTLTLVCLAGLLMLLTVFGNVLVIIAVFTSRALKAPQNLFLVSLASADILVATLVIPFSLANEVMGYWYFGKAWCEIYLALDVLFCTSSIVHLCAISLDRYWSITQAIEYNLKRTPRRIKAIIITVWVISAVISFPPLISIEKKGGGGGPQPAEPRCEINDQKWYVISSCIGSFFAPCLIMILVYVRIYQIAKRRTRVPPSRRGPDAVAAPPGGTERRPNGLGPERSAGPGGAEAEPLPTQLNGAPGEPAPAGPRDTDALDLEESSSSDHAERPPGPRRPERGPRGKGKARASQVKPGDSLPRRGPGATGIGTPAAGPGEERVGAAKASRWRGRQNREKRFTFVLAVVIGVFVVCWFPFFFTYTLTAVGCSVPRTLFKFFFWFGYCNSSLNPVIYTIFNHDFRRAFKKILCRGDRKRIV

Neuromedin-K receptor = biological target: T5, Neuromedin-K receptor (Homo sapiens, UniProt P29371); assay: Inhibition of [125I][MePhe7]-NKB binding to human Tachykinin receptor 3 (NK3)
T5 sequence (P29371 whole entry): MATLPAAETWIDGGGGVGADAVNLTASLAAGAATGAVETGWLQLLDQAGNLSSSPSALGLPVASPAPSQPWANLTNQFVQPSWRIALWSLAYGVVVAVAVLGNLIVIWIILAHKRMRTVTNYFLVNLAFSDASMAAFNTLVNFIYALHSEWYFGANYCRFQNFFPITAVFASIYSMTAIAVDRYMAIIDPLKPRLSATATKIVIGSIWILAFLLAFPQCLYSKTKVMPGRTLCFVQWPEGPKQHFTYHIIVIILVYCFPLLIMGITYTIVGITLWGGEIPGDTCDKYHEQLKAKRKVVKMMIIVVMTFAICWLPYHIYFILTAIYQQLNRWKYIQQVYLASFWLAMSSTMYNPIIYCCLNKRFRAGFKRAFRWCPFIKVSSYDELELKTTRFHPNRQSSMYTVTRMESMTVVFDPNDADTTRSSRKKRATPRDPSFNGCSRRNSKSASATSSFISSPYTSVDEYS

[9] = Inhibition of prazosin binding to noradrenaline alpha-1 receptor
Substance-P receptor = Substance-P receptor (Homo sapiens, UniProt P25103); assay: Inhibition of [Sar9,Met(O2)11]-SP binding to human Tachykinin receptor 1 (NK1)
Substance-P receptor, sequence (P25103 whole entry): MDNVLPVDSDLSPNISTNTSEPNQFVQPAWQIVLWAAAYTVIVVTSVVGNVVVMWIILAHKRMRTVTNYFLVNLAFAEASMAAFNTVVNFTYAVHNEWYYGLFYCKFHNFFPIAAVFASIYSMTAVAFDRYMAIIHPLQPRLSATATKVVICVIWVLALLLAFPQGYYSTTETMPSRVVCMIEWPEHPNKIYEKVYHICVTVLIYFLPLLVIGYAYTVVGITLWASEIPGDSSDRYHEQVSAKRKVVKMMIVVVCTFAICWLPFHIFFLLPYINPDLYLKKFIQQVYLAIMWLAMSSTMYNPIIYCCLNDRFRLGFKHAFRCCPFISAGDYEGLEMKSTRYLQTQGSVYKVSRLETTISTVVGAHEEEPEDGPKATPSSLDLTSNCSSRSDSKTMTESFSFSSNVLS

Sigma non-opioid intracellular receptor 1 (Homo sapiens), sequence (Q99720 whole entry): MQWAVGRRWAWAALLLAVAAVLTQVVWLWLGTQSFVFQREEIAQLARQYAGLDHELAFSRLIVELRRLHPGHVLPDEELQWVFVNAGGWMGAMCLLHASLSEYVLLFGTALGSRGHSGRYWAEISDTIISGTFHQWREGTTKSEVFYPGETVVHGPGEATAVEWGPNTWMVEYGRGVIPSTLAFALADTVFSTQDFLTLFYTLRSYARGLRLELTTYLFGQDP

SMILES	Selectivity ratio [1]	pIC50 (Substance-K receptor)	pIC50 [2]	pIC50 (D(1A) dopamine receptor)	pIC50 [3]	pIC50 [4]	pIC50 (Histamine H1 receptor)	pIC50 [5]	pIC50 [6]	pIC50 [7]	pIC50 [8]	pIC50 (Neuromedin-K receptor)	pIC50 [9]	pIC50 (Substance-P receptor)
COC1Cc2ccccc2C2(CCN(CCCCc3ccccc3)CC2)O1 (stereo unspecified)	30	–	–	–	–	–	–	–	–	–	–	–	–	–
COC1Cc2ccccc2C2(CCN(CCCc3ccccc3)CC2)O1 (stereo unspecified)	–	< 5.00	< 5.00	< 5.00	< 6.00	6.15	5.10	< 5.00	6.34	6.29	5.51	< 5.00	5.85	< 5.00
COC1Cc2ccccc2C2(CCN(Cc3ccccc3)CC2)O1 (stereo unspecified)	–	< 5.00	< 5.00	< 5.00	< 6.00	5.22	< 5.00	< 5.00	5.18	–	5.52	< 5.00	–	< 5.00
COC1Cc2ccccc2C2(CCN(C/C=C/c3ccccc3)CC2)O1 (stereo unspecified)	301	–	–	–	–	–	–	–	–	–	–	–	–	–
COC1OC2(CCN(Cc3ccccc3)CC2)c2ccccc21 (stereo unspecified)	–	< 5.00	< 5.00	< 5.00	< 6.00	5.10	< 5.00	< 5.00	< 5.00	< 5.00	5.21	< 5.00	< 5.00	< 5.00

Second part, the compound after the results:

Selectivity ratio [1]	pIC50 (Substance-K receptor)	pIC50 [2]	pIC50 (D(1A) dopamine receptor)	pIC50 [3]	pIC50 [4]	pIC50 (Histamine H1 receptor)	pIC50 [5]	pIC50 [6]	pIC50 [7]	pIC50 [8]	pIC50 (Neuromedin-K receptor)	pIC50 [9]	pIC50 (Substance-P receptor)	SMILES
2	–	–	–	–	–	–	–	–	–	–	–	–	–	OC1Cc2ccccc2C2(CCN(CCc3ccccc3)CC2)O1 (stereo unspecified)
236	–	–	–	–	–	–	–	–	–	–	–	–	–	OC1Cc2ccccc2C2(CCN(Cc3ccccc3)CC2)O1 (stereo unspecified)
